# Reference: patent US6365187B2, “Bioadhesive microspheres and their use as drug delivery and imaging systems” (priority 1992, dated 2002)
# Conditions: rat, in vivo
# Protocol: The animals were then housed in metabolic cages and the feces were collected every three hours for a period of four days. At given time intervals, the rats were X-rayed, and the distribution of the microspheres in the stomach and in the intestine was followed. The collected feces were also X-rayed in order to monitor the total transit time of the microspheres through the GI tract.
# Tests were conducted in areas of distinct pH and physiology: the stomach (low pH range), and the intestine (basic environment, pH ranging from 5-7, in the proximal to distal regions, respectively), FIGS. 6a, 6b, and 6c.
substance,measurement,value
alginate,"retention time in the intestine, ranking",longest retention time from the group of hydrogels
